Entries after “also recorded” stand apart in the source; their conditions may differ. Like-named read-outs stand apart in the source and are kept apart here. Values belong to the compound of their own block, whether it stands above or below them.
Tests used:
[1] = test system: patients with advanced solid malignancies; test: Phase I study of SAHA in combination with Carboplatin and Paclitaxel: dose-limiting and other toxicities; assay type: in vivo, human; conditions: in the combination
Experimental: The study is designed to define dose-limiting and non-dose limiting toxicities associated with this combination, and to obtain evidence of anti-tumor activity.
Both Carboplatin and Paclitaxel are administered on Day 1 of each treatment cycle. […] Each treatment cycle lasts for 3 weeks.
Definition of dose-limiting toxicity (DLT): Toxicities must be attributable to the study drug(s) to constitute DLT. […] If baseline value is elevated prior to drug therapy, an increase is not considered a DLT unless there is an elevation by more than two grades, and it is of clinical significance. Management and dose modifications associated with the above adverse events are outlined below.
Dosing delays and dose modifications: No intra-patient dose escalation is used. Chemotherapy doses may be reduced for hematological and non-hematological effects. Dose adjustments are to be made according to the system showing the greatest degree of toxicity. Toxicity is graded using the National Cancer Institute Common Toxicity Criteria (NCI CTC) for adverse events (version 3.0). Treatment may be delayed no more than two weeks to allow recovery from toxicity. Dose adjustments for toxicity are made according to the following guidelines.
Methods: Eligible patients were those with advanced solid malignancies who were candidates for combination therapy with Carboplatin and Paclitaxel. […] Carboplatin and Paclitaxel were given on Day 1 of each cycle.

[2] = test system: carcinogen-induced (N-methylnitrosourea) mammary tumors; conditions: rats, SAHA in their diet over the 130 days of the study; cited from earlier work
[3] = oral SAHA with food; cited from earlier work
[4] = Plasma pharmacokinetics of SAHA and its two major metabolites (LC-MS/MS) in the phase I study; assay type: in vivo, human
Experimental: Samples are assayed by the HPLC method (Kelly W K, Richon V M, O'Connor O, et al. Clin. Cancer Res. 2003; 9:3578-88) or by LC/MS assay. […] Quantitation of Paclitaxel and total platinum concentrations is done by validated methodology. […] Compartmental modeling is done with the computer program ADAPT II. Non-compartmental modeling is done with the […] function as implemented by the computer program […]. […] The time that Paclitaxel concentrations remain above 0.05 μM is determined using a limited sampling strategy with the 24-hour sample. […] Methods: Eligible patients were those with advanced solid malignancies who were candidates for combination therapy with Carboplatin and Paclitaxel. […] Carboplatin and Paclitaxel were given on Day 1 of each cycle.

[5] = test system: patients with advanced solid malignancies; conditions: on this schedule; cited from earlier work
[6] = human, plasma, po, oral SAHA, patients, plasma, Example 8, read-out: t1/2 (elimination half life) (converted)

SMILES: CC(=O)O[C@H]1C(=O)[C@@]2(C)[C@H]([C@H](OC(=O)c3ccccc3)[C@]3(O)C[C@H](OC(=O)[C@H](O)[C@@H](NC(=O)c4ccccc4)c4ccccc4)C(C)=C1C3(C)C)[C@]1(OC(C)=O)CO[C@@H]1C[C@@H]2O [Paclitaxel, 5-beta, 20-epoxy-1,2-alpha, 4,7-beta, 10-beta, 13-alpha-hexahydroxytax-11-en-9-one 4,10-diacetate 2-benzoate 13-ester with (2R,3S)—N-benzoyl-3-phenylisoserine]
Dose recommended for phase II studies ([1]; Day 1, 3 week cycles): 200 mg/m^2

SMILES: [NH2][Pt]1([NH2])[O]C(=O)C2(CCC2)C(=O)[O]1 [Carboplatin, platinum, diammine [1,1-cyclobutane-dicarboxylato (2-)-0,0′]-, (SP-4-2)]
Dose recommended for phase II studies ([1]; Day 1, 3 week cycles): 6 AUC

SMILES: O=C(O)CCC(=O)Nc1ccccc1 [4-Anilino-4-oxobutanoic acid]
half-life ([4]; human, plasma, po, Example 9, further results, patients after oral SAHA, read-out: t1/2 of acid metabolite (converted)): 4.1 ± 1.3 h | half-life [4, 6]: ~6 h | Cmax relative to SAHA Cmax ([4]; metabolite in plasma after oral SAHA, fold greater than SAHA Cmax): 1.5-7 fold

Continued, in another order:

SAHA clearance on Day 1 as compared to Day -4 ([4]; Example 9, most recent data): potential decreased clearance | half-life [4, 6]: 1.6 ± 0.5 h | Tmax ([4]; human, plasma, po, read-out: Tmax (time to maximum plasma or serum concentration)): 0.5 to 2 h | AUC versus dose ([4]; oral SAHA 200-400 mg, patients): increased with dose | absorption ([4]; oral SAHA, patients): rapidly absorbed | CL/F (clearance/bioavailability) ([4]; oral SAHA, patients, Example 8): 5.8 ± 1.7 L/min
SMILES: O=C(CCCCCCC(=O)Nc1ccccc1)NO [SAHA, N-Hydroxy-N′-phenyl octanediamide]
development and continued growth of carcinogen-induced (N-methylnitrosourea) mammary tumors [2]: effective at inhibiting | Dose recommended for phase II studies ([1]; PO QD (Days 1-14), 3 week cycles): 400 mg | bioavailability when taken with food [3]: does not alter the bioavailability | effect of Carboplatin and Paclitaxel on SAHA pharmacokinetics ([4]; Day -4 (SAHA alone) vs Day 1 (with Carboplatin and Paclitaxel)): did not alter SAHA pharmacokinetics; also recorded: not altered | RP2D of single agent SAHA [5]: 400 mg

t1/2 (elimination half life) ([4]; human, in vivo, po): approximately 2 h
SMILES: O=C(CCCCCCC(=O)Nc1ccccc1)NO[C@@H]1O[C@H](C(=O)O)[C@@H](O)[C@H](O)[C@H]1O [SAHA glucuronide]

— patent publication US20090105329A1 (priority 2005, published 2009)
